{"source": "patent US20090069551A1", "about": "“Flavorant Compounds” (priority 2006, published 2009)", "key": {"[1]": {"test": "Isoastringency: isointensity of astringent perception with a 700 μM aqueous catechin solution", "format": "in vivo", "details": "versus 700 μM aqueous catechin solution (pH 4.5)"}, "[2]": {"test": "Sensorial taste evaluation: taste thresholds by modified duo test with a sensory panel", "format": "in vivo", "details": "for taste threshold: modified duo test, sample versus tap water; for threshold concentration, times lower than the threshold concentration of catechin: relative to catechin", "source_text": "Sensorial taste evaluation of (E)-6-(3-hydroxyphenyl)-(4-O-β-D-glucopyranoside)hex-5-en-2-one and (3E,5E)-6-[3-Hydroxy-4-O-β-D-glucopyranoside-phenyl]-hexa-3 ,5-dien-2-one\nFor evaluation of taste thresholds of the isolated substances, a modified duo test is used. […] As astringent substances can remain longer on the tongue or possibly can be fortified by addition of tap water, the assessed dilutions (tap water and assay) were given on two different regions of the tongue to compare the taste impressions. The panelists had to determine the dilution at which a difference between sample and tap water could be found."}}, "data": [{"smiles": "CC(=O)/C=C/C=C/c1ccc(O[C@@H]2OC(CO)[C@@H](O)C(O)C2O)c(O)c1", "note": "(stereo partly drawn) [(3E,5E)-6-[3-Hydroxy-4-O-β-D-glucopyranoside-phenyl]-hexa-3,5-dien-2-one]", "values": [{"measurement": "isoastringency: concentration needed to reach isointensity of astringent perception with catechin solution", "setting": "[1]", "value": 200, "unit": "µmol/L"}, {"measurement": "taste threshold", "setting": "[2]", "value": 4.0, "unit": "µmol/L"}, {"measurement": "threshold concentration, times lower than the threshold concentration of catechin", "setting": "[2]", "value": "about 100 times"}]}, {"smiles": "CC(=O)CC/C=C/c1ccc(O[C@@H]2OC(CO)[C@@H](O)C(O)C2O)c(O)c1", "note": "(stereo partly drawn) [(E)-6-(3-hydroxyphenyl)-(4-O-β-D-glucopyranoside)hex-5-en-2-one]", "values": [{"measurement": "isoastringency: concentration needed to reach isointensity of astringent perception with catechin solution", "setting": "[1]", "value": 120, "unit": "µmol/L"}, {"measurement": "taste threshold", "setting": "[2]", "value": 4.3, "unit": "µmol/L"}, {"measurement": "threshold concentration, times lower than the threshold concentration of catechin", "setting": "[2]", "value": "about 100 times"}]}]}
